Measurements from patent US20250129021A1, “SMALL MOLECULE PROTEIN SYNTHESIS MODULATORS” (Interdict Bio, Inc., priority 2023, published 2025).
Where two headings read alike, the source gives them in different places.

Columns and labels:
Format in all cases: biochemical
Details in all cases: HeLa S3 lysate, 2 hrs at 30° C.
CCND1 = assay: In vitro transcription-translation (IVTT) assay, CCND1 reporter
From the text: (§1) All reporter constructs have been cloned into the pT7CFE1-CHis plasmid (ThermoFisher #88860) using Gibson assembly procedures (NEB #E2611L). The parental pT7CFE1-CHis plasmid contains an EMCV IRES at the 5′UTR for translation initiation, a multiple-cloning site (MCS) for gene insertion, an optional C-terminal His-epitope tag, and polyA sequence in the 3′UTR to regulate mRNA stability. All reporters are designed to be inserted at the MCS to include a red fluorescent protein (mCherry), P2A self-cleaving peptide which releases the preceding mCherry protein product, and a fusion open reading frame containing a 3×FLAG epitope, a peptide sequence of interest (TEST), and green fluorescent protein (sfGFP).
(§2) Construct Plasmid Preparation: All plasmids are isolated from MACH1 cells (ThermoFisher) grown overnight in ampicillin-containing luria broth, and purified using ZymoPure Express Plasmid Midiprep Kit (Zymo Research). Constructs are sequenced verified and diluted to a working concentration of 110 ng/μL.
(§3) HeLa S3 Lysate Preparation: HeLa S3 cell pellets are acquired from Ipracell/Ipratech (Belgium) and shipped as 4 mL frozen cell pellets on dry ice for storage at −80° C. until use. The procedure for lysate preparation is as follows. Prepare 1× Lysis Buffer, cold and stored on ice:
(§4) Each preparation takes 8 cell pellets (4 ml packed volume each, approximately 1.0×10^9 cells per pellet). Thaw cell pellets from −80° C. on ice for 90 mins. Lay pellets horizontally on top of the ice and rotate every 30 mins to ensure even thawing. Once thawed, add 4 mL of cold lysis buffer to each pellet, and using a serological pipet, gently pipet up and down to break up clumps. Incubate resuspended cells in ice for an additional 30 mins (plunged into ice). During 30 min incubation, rinse and RNase-zap (Ambion) glass dounces (use loose pestle “A”), gently dry and place on ice until needed. Prepare RNase-free Eppendorf tubes for spinning and for batch storage. Add batch labels to 1.5-1.7 mL RNase-free microcentrifuge tubes (labeling scheme below). Each batch will have an extra 1.5-1.7 mL RNase-free microcentrifuge tube for 40 μL of lysate, label the top of this tube (labeling scheme below). After 30 min incubation, transfer all 8 mL of cell pellet to dounce. Cell lysis is complete after douncing 100 times. Aliquot cell lysis into 1.5-1.7 mL temporary-microcentrifuge tubes. Place tubes in centrifuge with “fins” out, and spin at 1,200×g for 5 mins. After the first spin use a 1 mL pipet to resuspend each tube and repeat spin. This acts as an additional lysis step, is more vigorous and increases lysate yield. During second spin get liquid N2 and a fresh conical tube on ice. After spin is complete, transfer supernatant (lysate) from microcentrifuge tubes into the 50 mL conical tube and keep on ice. Repeat steps 10-14 for all other cell pellets until completed. Once all cell lysate has been transferred to the 50 mL conical tube pipet to mix so the solution is homogenous. Transfer 1 mL of lysate into batch-labeled microcentrifuge tubes and flash freeze in liquid nitrogen. Be sure to pipet up and down to mix throughout transfer step. Place all tubes in the […] for long-term storage.
(§5) In vitro transcription-translation assay setup: Each assay includes a master mix containing lysate and shared components, a 96-well plate containing compound titrations for testing, a 96-well DNA plate with reporter constructs to be tested, 96-well skirted PCR plates, and 96-well flat-bottom, black, fluorescent assay plates. […]

MYC = assay: In vitro transcription-translation (IVTT) assay, MYC reporter
From the text: as §1, §2, §3, §4, §5

MCL-1 = assay: In vitro transcription-translation (IVTT) assay, MCL-1 reporter
From the text: as §1, §2, §3, §4, §5

CCNTB1 = assay: In vitro transcription-translation (IVTT) assay, CCNTB1 reporter
Protocol: as §4
In vitro transcription-translation assay setup: Each assay includes a master mix containing lysate and shared components, a 96-well plate containing compound titrations for testing, a 96-well DNA plate with reporter constructs to be tested, 96-well skirted PCR plates, and 96-well flat-bottom, black, fluorescent assay plates. Reaction materials setup: (A) Master mix—15 mL conical tube (3 mL of HeLa S3 Lysate described above; 0.6 mL of ThermoFisher Accessory Proteins (#88882); 1.2 ml of ThermoFisher Reaction Mix (#88882); 0.54 mL of nuclease-free Water); (B) 96-Well Master Mix+Compound Plate (Half-log dilutions (30 μM−0.1 μM) of 4 compounds of interest are prepared in 100% DMSO); 96-Well DNA Plate (Five DNA constructs are plated into single columns within the plate. Row 1 of the column contains nuclease free H2O, all other wells contain 110 ng/μL plasmid DNA). Reactions are started by mixing 155 μL of master mix and 3.5 μL of compound serial dilutions, then 9.1 μL of master mix+compound mixture is aliquoted across 5 96-well plates. Reactions begin with final addition of 2 μL of DNA for a 11.1 μL reaction volume in each well. The entire plate is sealed, and incubated for 2 hrs at 30° C. After 2 hrs, quench the assay using 45 μL of PBS, and transfer 50 μL to a flat-bottom black microplate Quantify the sfGFP and mCherry signals from each well on each plate, taking 3 reads of each plate, and perform data analysis below.
In vitro transcription-translation assay data analysis: Each plate is read three times in channels for both sfGFP and mCherry signals. The average signal across these 3 reads is then calculated for further analysis. Control wells containing no DNA reporter are subtracted from reporter wells in the same column to remove auto-fluorescence of the lysate. Then, the ratio of sfGFP/mCherry is calculated per well, and these ratios are averaged across the triplicate experiments on the same plate. Finally, the ratio of each titration concentration is normalized to the no drug control to create the normalized stalling metric. […]

[1] = IVTT assay, MYC reporter, normalized sfGFP/mCherry ratio, half-log dilutions 30 μM-0.1 μM

| Structure (SMILES) | IC50 (CCND1; IVTT) [µM] | IC50 (MCL-1; IVTT, read-out: MCL1 IC50) [µM] | IC50 (CCNTB1) [µM] | IC50 (CCND1; sfGFP/mCherry ratio) [µM] | IC50 (MYC; sfGFP/mCherry ratio) [µM] | IC50 (MCL-1; sfGFP/mCherry ratio) [µM] | IC50 (MYC; [1]) [µM] |
| --- | --- | --- | --- | --- | --- | --- | --- |
| CC(F)(F)c1ccc(C[C@H]2NC[C@H](O)[C@H]2OC(=O)NCc2cccc(F)c2)cc1 [V190547, (2R,3S,4S)-2-{[4-(1,1-difluoroethyl)phenyl]methyl}-4-hydroxypyrrolidin-3-yl N-[(3-fluorophenyl)methyl]carbamate] | 20 to 30 | < 10 | < 10 | – | – | – | < 10 |
| O=C(NCCc1ccncc1)O[C@@H]1[C@@H](O)CN[C@@H]1Cc1ccc(-c2cn(-c3ccc(Cl)cc3)nn2)cc1 [V187950, (2R,3S,4S)-2-({4-[1-(4-chlorophenyl)-1,2,3-triazol-4-yl]phenyl}methyl)-4-hydroxypyrrolidin-3-yl N-[2-(pyridin-4-yl)ethyl]carbamate] | – | – | – | < 10 | 10 to 20 | < 10 | – |
| COc1ccc(C[C@H]2NC[C@H](O)[C@H]2OC(=O)NC[C@@H]2CNC[C@@H]2O)cc1 [Cmpd V188116] | – | – | – | > 30 | 20 to 30 | 10 to 20 | – |
| O=C(NCC[C@@H]1CCCN1)O[C@@H]1[C@@H](O)CN[C@@H]1Cc1ccc(-c2ccc(S(F)(F)(F)(F)F)cc2)cc1 [V191968, (2R,3S,4S)-4-hydroxy-2-((4′-(pentafluoro-l6-sulfanyl)-[1,1′-biphenyl]-4-yl)methyl)pyrrolidin-3-yl (2-((S)-pyrrolidin-2-yl)ethyl)carbamate] | – | – | > 30 | – | – | – | > 30 |
| COc1ccc(C[C@H]2NC[C@H](O)[C@H]2OC(=O)NCc2ccc(B(O)O)cc2)cc1 [V188106] | – | – | – | < 10 | < 10 | < 10 | – |
| [H]/N=C(\N)CNC(=O)O[C@@H]1[C@@H](O)CN[C@@H]1Cc1ccc(OC)cc1 [Cmpd V187993] | – | – | – | 10 to 20 | 10 to 20 | 10 to 20 | – |
| O=C(NCCc1ccncc1)O[C@@H]1[C@@H](O)CN[C@@H]1Cc1ccc(-c2cn(Cc3cn[nH]c3)nn2)cc1 [V187948, (2R,3S,4S)-4-hydroxy-2-({4-[1-(1H-pyrazol-4-ylmethyl)-1,2,3-triazol-4-yl]phenyl}methyl)pyrrolidin-3-yl N-[2-(pyridin-4-yl)ethyl]carbamate] | – | – | – | < 10 | < 10 | < 10 | – |
| [H]/N=C(/N)c1cccc(CNC(=O)O[C@@H]2[C@@H](O)CN[C@@H]2Cc2ccc(OC)cc2)c1 [Cmpd V187989] | – | – | – | < 10 | – | < 10 | – |
| COc1ccc(C[C@H]2NC[C@H](O)[C@H]2OC(=O)NCc2cc(C(F)(F)F)[nH]n2)cc1 [Cmpd V187861] | – | – | – | 20 to 30 | > 30 | < 10 | – |
| COc1ccc(C[C@H]2NC[C@H](O)[C@H]2OC(=O)NC[C@H]2CNC[C@H]2O)cc1 [V188115, (2R,3S,4S)-4-hydroxy-2-[(4-methoxyphenyl)methyl]pyrrolidin-3-yl N-{[(3R,4S)-4-hydroxypyrrolidin-3-yl]methyl}carbamate] | – | – | – | > 30 | > 30 | 10 to 20 | – |
| COc1ccc(C[C@H]2NC[C@H](O)[C@H]2OC(=O)NC[C@H]2CNC[C@@H]2O)cc1 [V188114, (2R,3S,4S)-4-hydroxy-2-[(4-methoxyphenyl)methyl]pyrrolidin-3-yl N-{[(3R,4R)-4-hydroxypyrrolidin-3-yl]methyl}carbamate] | – | – | – | > 30 | 20 to 30 | 10 to 20 | – |
| COc1ccc(C[C@H]2NC[C@H](O)[C@H]2OC(=O)NCC2CC(F)(F)C2)cc1 [V187862, (2R,3S,4S)-4-hydroxy-2-[(4-methoxyphenyl)methyl]pyrrolidin-3-yl N-[(3,3-difluorocyclobutyl)methyl]carbamate] | – | – | – | < 10 | < 10 | < 10 | – |
| COc1ccc(C[C@H]2NC[C@H](O)[C@H]2NC(=O)OCc2ccccc2)cc1 [Cmpd V187864] | – | – | – | > 30 | > 30 | > 30 | – |
| COc1ccc(C[C@H]2NC[C@H](O)[C@H]2OC(=O)NCC2CNC2)cc1 [V187599, (2R,3S,4S)-4-hydroxy-2-[(4-methoxyphenyl)methyl]pyrrolidin-3-yl N-(azetidin-3-ylmethyl)carbamate] | – | – | – | – | > 30 | 10 to 20 | – |

Now from value to compound, other results behind:

| IC50 (CCND1; IVTT) [µM] | IC50 (MCL-1; IVTT, read-out: MCL1 IC50) [µM] | IC50 (CCNTB1) [µM] | IC50 (CCND1; sfGFP/mCherry ratio) [µM] | IC50 (MYC; sfGFP/mCherry ratio) [µM] | IC50 (MCL-1; sfGFP/mCherry ratio) [µM] | Structure (SMILES) | IC50 (MYC; [1]) [µM] |
| --- | --- | --- | --- | --- | --- | --- | --- |
| – | – | – | < 10 | 20 to 30 | < 10 | COc1ccc(C[C@H]2NC[C@H](O)[C@H]2OC(=O)NCC(N)=O)cc1 [V188002, (2R,3S,4S)-4-hydroxy-2-[(4-methoxyphenyl)methyl]pyrrolidin-3-yl N-(carbamoylmethyl)carbamate] | – |
| – | – | – | 20 to 30 | 10 to 20 | 10 to 20 | COc1ccc(C[C@H]2NC[C@H](O)[C@H]2OC(=O)NCCN[C@@H]2CCNC2)cc1 [V188073, (2R,3S,4S)-4-hydroxy-2-[(4-methoxyphenyl)methyl]pyrrolidin-3-yl N-{2-[(3R)-pyrrolidin-3-ylamino]ethyl}carbamate] | – |
| – | – | – | < 10 | < 10 | < 10 | COc1ccc(C[C@H]2NC[C@H](O)[C@H]2OC(=O)NCc2cnc(N)nc2)cc1 [V188037, (2R,3S,4S)-4-hydroxy-2-[(4-methoxyphenyl)methyl]pyrrolidin-3-yl N-[(2-aminopyrimidin-5-yl)methyl]carbamate] | – |
| – | – | – | – | 10 to 20 | < 10 | COc1ccc(C[C@H]2NC[C@H](O)[C@H]2OC(=O)NCCC2CNC2)cc1 [V187600, (2R,3S,4S)-4-hydroxy-2-[(4-methoxyphenyl)methyl]pyrrolidin-3-yl N-[2-(azetidin-3-yl)ethyl]carbamate] | – |
| – | – | – | 10 to 20 | 10 to 20 | 10 to 20 | COc1ccc(C[C@H]2NC[C@H](O)[C@H]2OC(=O)NCCNc2ccccn2)cc1 [V188059, (2R,3S,4S)-4-hydroxy-2-[(4-methoxyphenyl)methyl]pyrrolidin-3-yl N-[2-(pyridin-2-ylamino)ethyl]carbamate] | – |
| – | – | – | > 30 | > 30 | > 30 | COc1ccc(C[C@H]2NC[C@H](O)[C@H]2OC(=O)NCCNc2ncccn2)cc1 [V188058] | – |
| – | – | – | 20 to 30 | 10 to 20 | < 10 | COc1ccc(C[C@H]2NC[C@H](O)[C@H]2OC(=O)NCCn2ccnc2C)cc1 [V188087, (2R,3S,4S)-4-hydroxy-2-[(4-methoxyphenyl)methyl]pyrrolidin-3-yl N-[2-(2-methylimidazol-1-yl)ethyl]carbamate] | – |
